US20240024488A1, “COMPOUNDS AND USES THEREOF” (Foghorn Therapeutics Inc., priority 2020, published 2024)

Assays:
[1] = target: T1, HiBit-BRG1 fusion protein (Homo sapiens, UniProt P51532); experiment: HiBiT-BRG1 cell-based degradation assay (Nano-Glo HiBiT Lytic Detection, 24 h); details: HeLa cell line expressing HiBit-BRG1 and LgBit; for Dmax: read-out: BRG1 HiBit Degradation Maximum (%); for DC50: read-out: BRMG1 HiBit Degradation IC50
T1 construct: expressed in transfected cells
How it was run: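 HeLa cells stably expressing HiBiT-BRG1 plus LgBit, 5000/well, treated 24 h, then lysed with Nano-Glo HiBiT lytic reagent and luminescence read. % degradation normalised between DMSO (high control) and 2 μM reference BRM/BRG1 degrader (low control).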

HiBit-BRM fusion protein = target: T2, HiBit-BRM fusion protein (Homo sapiens, UniProt P51531); experiment: HiBiT-BRM cell-based degradation assay (Nano-Glo HiBiT Lytic Detection, 24 h); details: HeLa cell line expressing HiBiT-BRM; for DC50: read-out: BRM HiBit Degradation IC50
T2 construct: expressed in transfected cells
How it was run: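 Stable HiBiT-BRM HeLa line; 24 h compound exposure, top final 30 μM, 3-fold, 10 pts in duplicate. Lytic HiBiT/LgBiT luminescence readout. % degradation vs DMSO (0%) and 2 μM known BRM/BRG1 degrader (100%).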

T2 sequence (P51531 whole entry, the tested form may be a part): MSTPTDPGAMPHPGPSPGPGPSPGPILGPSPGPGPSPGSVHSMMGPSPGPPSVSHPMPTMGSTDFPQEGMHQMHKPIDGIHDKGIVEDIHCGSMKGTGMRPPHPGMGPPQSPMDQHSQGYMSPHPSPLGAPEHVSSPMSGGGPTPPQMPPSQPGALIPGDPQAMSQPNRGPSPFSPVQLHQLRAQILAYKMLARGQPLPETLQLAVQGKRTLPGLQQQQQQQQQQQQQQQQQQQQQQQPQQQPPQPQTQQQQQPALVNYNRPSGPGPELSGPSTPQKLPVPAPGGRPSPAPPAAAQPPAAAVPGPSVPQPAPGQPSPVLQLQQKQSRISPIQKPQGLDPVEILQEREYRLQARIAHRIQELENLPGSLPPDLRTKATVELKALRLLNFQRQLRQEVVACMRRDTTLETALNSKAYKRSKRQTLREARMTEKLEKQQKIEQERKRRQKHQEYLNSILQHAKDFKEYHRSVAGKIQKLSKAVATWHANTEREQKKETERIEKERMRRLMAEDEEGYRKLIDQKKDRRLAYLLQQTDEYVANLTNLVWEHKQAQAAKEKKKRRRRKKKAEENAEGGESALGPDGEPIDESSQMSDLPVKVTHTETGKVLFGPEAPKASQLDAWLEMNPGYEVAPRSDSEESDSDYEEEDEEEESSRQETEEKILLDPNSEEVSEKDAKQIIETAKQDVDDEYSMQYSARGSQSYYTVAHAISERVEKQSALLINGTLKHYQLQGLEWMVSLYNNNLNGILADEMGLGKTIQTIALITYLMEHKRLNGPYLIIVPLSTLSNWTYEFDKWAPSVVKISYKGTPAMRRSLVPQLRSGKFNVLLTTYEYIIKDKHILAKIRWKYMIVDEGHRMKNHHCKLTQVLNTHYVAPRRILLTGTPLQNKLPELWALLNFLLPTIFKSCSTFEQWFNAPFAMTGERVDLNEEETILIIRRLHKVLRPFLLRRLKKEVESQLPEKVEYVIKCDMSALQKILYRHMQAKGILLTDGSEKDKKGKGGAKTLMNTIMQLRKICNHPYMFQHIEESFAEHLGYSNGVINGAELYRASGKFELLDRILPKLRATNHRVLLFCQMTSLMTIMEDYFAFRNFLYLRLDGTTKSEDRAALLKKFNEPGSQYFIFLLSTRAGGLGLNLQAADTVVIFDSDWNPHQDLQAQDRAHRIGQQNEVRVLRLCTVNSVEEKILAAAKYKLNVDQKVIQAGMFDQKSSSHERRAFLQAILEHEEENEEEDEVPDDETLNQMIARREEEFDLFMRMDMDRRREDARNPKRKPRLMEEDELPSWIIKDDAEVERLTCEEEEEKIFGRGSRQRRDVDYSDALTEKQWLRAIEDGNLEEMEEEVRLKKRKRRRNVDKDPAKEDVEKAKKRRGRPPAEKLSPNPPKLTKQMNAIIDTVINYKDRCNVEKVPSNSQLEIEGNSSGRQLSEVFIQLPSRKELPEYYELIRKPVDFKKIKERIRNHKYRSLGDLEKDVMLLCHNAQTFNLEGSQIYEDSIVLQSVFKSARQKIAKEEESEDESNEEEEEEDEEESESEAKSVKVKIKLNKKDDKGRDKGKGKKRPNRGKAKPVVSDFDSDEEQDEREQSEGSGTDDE
T1 sequence (P51532 whole entry, the tested form may be a part): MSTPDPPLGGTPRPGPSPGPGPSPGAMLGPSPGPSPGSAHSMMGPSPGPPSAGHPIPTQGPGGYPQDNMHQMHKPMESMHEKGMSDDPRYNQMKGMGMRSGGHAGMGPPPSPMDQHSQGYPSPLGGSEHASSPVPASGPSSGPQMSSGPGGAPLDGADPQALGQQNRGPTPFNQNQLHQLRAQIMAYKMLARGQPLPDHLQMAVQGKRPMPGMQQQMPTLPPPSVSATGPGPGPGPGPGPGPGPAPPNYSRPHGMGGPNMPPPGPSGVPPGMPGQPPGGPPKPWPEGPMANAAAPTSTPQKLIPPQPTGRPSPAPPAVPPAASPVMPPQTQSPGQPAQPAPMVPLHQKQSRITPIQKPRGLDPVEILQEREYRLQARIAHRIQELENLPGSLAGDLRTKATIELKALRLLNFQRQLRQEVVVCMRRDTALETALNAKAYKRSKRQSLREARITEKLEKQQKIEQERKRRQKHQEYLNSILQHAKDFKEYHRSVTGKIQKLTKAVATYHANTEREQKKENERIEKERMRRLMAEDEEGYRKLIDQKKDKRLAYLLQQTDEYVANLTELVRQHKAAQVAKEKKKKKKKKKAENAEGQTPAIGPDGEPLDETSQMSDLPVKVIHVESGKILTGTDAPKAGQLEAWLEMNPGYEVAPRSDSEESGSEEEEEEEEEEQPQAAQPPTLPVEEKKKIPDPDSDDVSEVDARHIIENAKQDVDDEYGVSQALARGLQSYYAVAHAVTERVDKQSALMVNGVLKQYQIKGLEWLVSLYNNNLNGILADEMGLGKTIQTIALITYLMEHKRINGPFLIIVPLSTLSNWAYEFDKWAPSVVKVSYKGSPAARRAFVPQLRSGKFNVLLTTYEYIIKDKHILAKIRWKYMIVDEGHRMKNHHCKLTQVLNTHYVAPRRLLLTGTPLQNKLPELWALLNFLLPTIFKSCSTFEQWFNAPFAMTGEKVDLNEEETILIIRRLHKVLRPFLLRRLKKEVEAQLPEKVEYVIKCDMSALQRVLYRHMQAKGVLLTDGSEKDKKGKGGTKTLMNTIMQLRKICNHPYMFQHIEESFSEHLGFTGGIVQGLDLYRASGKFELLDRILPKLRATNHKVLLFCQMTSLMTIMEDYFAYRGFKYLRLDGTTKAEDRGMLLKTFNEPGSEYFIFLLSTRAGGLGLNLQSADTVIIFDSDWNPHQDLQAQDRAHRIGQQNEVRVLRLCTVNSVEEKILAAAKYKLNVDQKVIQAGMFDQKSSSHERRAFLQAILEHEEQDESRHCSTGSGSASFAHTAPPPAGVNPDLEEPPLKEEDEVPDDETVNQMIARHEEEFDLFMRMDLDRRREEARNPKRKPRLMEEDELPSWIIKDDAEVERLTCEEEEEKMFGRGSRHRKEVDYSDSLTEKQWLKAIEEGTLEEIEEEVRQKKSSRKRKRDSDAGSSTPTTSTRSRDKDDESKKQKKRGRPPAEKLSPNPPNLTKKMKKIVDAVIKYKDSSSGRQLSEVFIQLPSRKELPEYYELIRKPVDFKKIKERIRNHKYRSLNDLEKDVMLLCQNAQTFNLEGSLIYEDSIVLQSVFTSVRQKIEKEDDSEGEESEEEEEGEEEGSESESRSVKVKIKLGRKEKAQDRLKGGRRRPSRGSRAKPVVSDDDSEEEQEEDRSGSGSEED

Row | Dmax [1] | DC50 (HiBit-BRM fusion protein) | DC50 [1] | Structure (SMILES) | BRM HiBit Degradation Maximum (%) (HiBit-BRM fusion protein)
1 | < 50% | > 100 nM |  | Cc1ncsc1-c1ccc([C@H](C)NC(=O)[C@@H]2C[C@@H](O)CN2C(=O)[C@@H](c2cc(C3CCN(C(=O)[C@]4(N)CCc5[nH]c6nnc(-c7ccccc7O)cc6c5C4)CC3)no2)C(C)C)cc1 (relative stereo) [Compound 104, (2S,4R)-1-[(2R)-2-(3-{1-[(6R*)-6-amino-3-(2-hydroxyphenyl)-5H,7H,8H,9H-pyridazino[3,4-blindole-6-carbonyl]piperidin-4-yl}-1,2-oxazol-5-yl)-3-methylbutanoyl]-4-hydroxy-N-[(1S)-1-[4-(4-methyl-1,3-thiazol-5-yl)phenyl]ethyl]pyrrolidine-2-carboxamide] | B (“B” indicates maximum degradation ≥ 50%)
2 | > 75% | > 100 nM | > 100 nM | Cc1ncsc1-c1ccc([C@H](C)NC(=O)[C@@H]2C[C@@H](O)CN2C(=O)[C@@H](c2cc(C3CN(C(=O)[C@H]4CCc5[nH]c6nnc(-c7ccccc7O)cc6c5C4)C3)no2)C(C)C)cc1 (relative stereo) [Compound 157, (2S,4R)-4-hydroxy-1-[(2R*)-2-(3-{1-[(6R**)-3-(2-hydroxyphenyl)-5H,6H,7H,8H,9H-pyridazino[3,4-b]indole-6-carbonyl]azetidin-3-yl}-1,2-oxazol-5-yl)-3-methylbutanoyl]-N-[(1S)-1-[4-(4-methyl-1,3-thiazol-5-yl)phenyl]ethyl]pyrrolidine-2-carboxamide] | A (“A” indicates maximum degradation ≥ 75%)
3 | < 50% | > 1000 nM |  | Cc1ncsc1-c1ccc(CNC(=O)[C@@H]2C[C@@H](O)CN2C(=O)[C@@H](NC(=O)CCC(=O)N[C@H]2CCc3[nH]c4nnc(-c5ccccc5O)cc4c3C2)C(C)(C)C)cc1 (relative stereo) [Compound 174, N1-((S)-1-((2S,4R)-4-hydroxy-2-((4-(4-methylthiazol-5-yl)benzyl)carbamoyl)pyrrolidin-1-yl)-3,3-dimethyl-1-oxobutan-2-yl)-N4-((S)-3-(2-hydroxyphenyl)-6,7,8,9-tetrahydro-5H-pyridazino[3,4-b]indol-6-yl)succinamide] | B (“B” indicates maximum degradation ≥ 50%)
4 | < 50% | > 1000 nM |  | Cc1ncsc1-c1ccc(CNC(=O)[C@@H]2C[C@@H](O)CN2C(=O)[C@@H](NC(=O)CCCCC(=O)N[C@H]2CCc3[nH]c4nnc(-c5ccccc5O)cc4c3C2)C(C)(C)C)cc1 (relative stereo) [Compound 175, N1-((S)-1-((2S,4R)-4-hydroxy-2-((4-(4-methylthiazol-5-yl)benzyl)carbamoyl)pyrrolidin-1-yl)-3,3-dimethyl-1-oxobutan-2-yl)-N6-((S)-3-(2-hydroxyphenyl)-6,7,8,9-tetrahydro-5H-pyridazino[3,4-b]indol-6-yl)adipamide] | A (“A” indicates maximum degradation ≥ 75%)
5 | > 75% | > 10 nM | > 100 nM | Cc1ncsc1-c1ccc([C@H](C)NC(=O)[C@@H]2C[C@@H](O)CN2C(=O)[C@@H](c2cc(-c3cnc(N4CCc5[nH]c6nnc(-c7ccccc7O)cc6c5C4)nc3)no2)C(C)C)cc1 (single isomer, unassigned) [Compound 85] | A (“A” indicates maximum degradation ≥ 75%)
6 | < 50% |  |  | Cc1ncsc1-c1ccc([C@H](C)NC(=O)[C@@H]2C[C@@H](O)CN2C(=O)C(c2cc(OCC(=O)N[C@@]3(C(=O)O)CCc4[nH]c5nnc(-c6ccccc6O)cc5c4C3)no2)C(C)C)cc1 (single isomer, unassigned) [Compound 88] | C (“C” indicates maximum degradation < 50%)
7 | < 50% |  |  | Cc1ncsc1-c1ccc([C@H](C)NC(=O)[C@@H]2C[C@@H](O)CN2C(=O)C(c2cc(OCC(=O)N[C@]3(C(=O)O)CCc4[nH]c5nnc(-c6ccccc6O)cc5c4C3)no2)C(C)C)cc1 (single isomer, unassigned) [Compound 89] | C (“C” indicates maximum degradation < 50%)
8 | < 50% |  |  | Cc1ncsc1-c1ccc([C@H](C)NC(=O)[C@@H]2C[C@@H](O)CN2C(=O)C(c2cc(OCCN[C@]3(C(=O)O)CCc4[nH]c5nnc(-c6ccccc6O)cc5c4C3)no2)C(C)C)cc1 (single isomer, unassigned) [Compound 91] | C (“C” indicates maximum degradation < 50%)
9 | > 75% | > 10 nM | > 10 nM | Cc1ncsc1-c1ccc([C@H](C)NC(=O)[C@@H]2C[C@@H](O)CN2C(=O)[C@@H](c2cc(N3CCC(c4cnc(N5CCC(c6c[nH]c7nnc(-c8ccccc8O)cc67)CC5)nc4)CC3)no2)C(C)C)cc1 (single isomer, unassigned) [Compound 92] | A (“A” indicates maximum degradation ≥ 75%)
10 | < 50% |  |  | Cc1ncsc1-c1ccc([C@H](C)NC(=O)[C@@H]2C[C@@H](O)CN2C(=O)[C@H](c2cc(N3C[C@@H]4C[C@H]3CN4C(=O)[C@@H]3CCc4[nH]c5nnc(-c6ccccc6O)cc5c4C3)no2)C(C)C)cc1 (single isomer, unassigned) [Compound 100] | C (“C” indicates maximum degradation < 50%)
11 | < 50% |  |  | Cc1ncsc1-c1ccc([C@H](C)NC(=O)[C@@H]2C[C@@H](O)CN2C(=O)[C@@H](c2cc(N3C[C@@H]4C[C@H]3CN4C(=O)[C@@H]3CCc4[nH]c5nnc(-c6ccccc6O)cc5c4C3)no2)C(C)C)cc1 (single isomer, unassigned) [Compound 102] | A (“A” indicates maximum degradation ≥ 75%)
12 | > 75% | < 10 nM | > 10 nM | Cc1ncsc1-c1ccc([C@H](C)NC(=O)C2C[C@@H](O)CN2C(=O)[C@@H](c2cc(OCCN3C[C@H]4C[C@@H](c5[nH]c6nnc(-c7ccccc7O)cc6c5C)C[C@H]4C3)no2)C(C)C)cc1 (single isomer, unassigned) [Compound 108] | A (“A” indicates maximum degradation ≥ 75%)
13 | > 75% | < 10 nM | > 10 nM | Cc1ncsc1-c1ccc([C@H](C)NC(=O)C2C[C@@H](O)CN2C(=O)[C@@H](c2cc(OCCN3C[C@H]4C[C@H](c5[nH]c6nnc(-c7ccccc7O)cc6c5C)C[C@H]4C3)no2)C(C)C)cc1 (single isomer, unassigned) [Compound 112] | A (“A” indicates maximum degradation ≥ 75%)
14 | < 50% |  |  | Cc1ncsc1C12CC(CNC(=O)[C@@H]3C[C@@H](O)CN3C(=O)[C@H](c3cc(OCCN4CC(c5cc6cc(-c7ccccc7O)nnc6[nH]5)C4)no3)C(C)C)(C1)C2 (single isomer, unassigned) [Compound 114] | C (“C” indicates maximum degradation < 50%)
15 | < 50% |  |  | Cc1ncsc1C12CC(CNC(=O)[C@@H]3C[C@@H](O)CN3C(=O)[C@@H](c3cc(OCCN4CC(c5cc6cc(-c7ccccc7O)nnc6[nH]5)C4)no3)C(C)C)(C1)C2 (single isomer, unassigned) [Compound 115] | C (“C” indicates maximum degradation < 50%)
16 | < 50% |  |  | CC(C)[C@H](C(=O)N1C[C@H](O)C[C@H]1C(=O)N[C@@H](C)c1ccc(-c2ccccc2F)cc1)c1cc(OCCN2CC(c3cc4cc(-c5ccccc5O)nnc4[nH]3)C2)no1 (single isomer, unassigned) [Compound 117] | C (“C” indicates maximum degradation < 50%)
17 | > 50% | > 10 nM | > 1000 nM | CC(C)[C@@H](C(=O)N1C[C@H](O)C[C@H]1C(=O)N[C@@H](C)c1ccc(-c2ccccc2F)cc1)c1cc(OCCN2CC(c3cc4cc(-c5ccccc5O)nnc4[nH]3)C2)no1 (single isomer, unassigned) [Compound 119] | A (“A” indicates maximum degradation ≥ 75%)
18 | < 50% |  |  | Cc1ncsc1-c1ccc([C@H](C)NC(=O)[C@@H]2C[C@@H](O)CN2C(=O)[C@H](c2cc(CN3CCc4[nH]c5nnc(-c6ccccc6O)cc5c4C3)no2)C(C)C)cc1 (single isomer, unassigned) [Compound 135] | C (“C” indicates maximum degradation < 50%)
19 | < 50% |  |  | Cc1ncsc1-c1ccc([C@H](C)NC(=O)[C@@H]2C[C@@H](O)CN2C(=O)[C@@H](c2cc(CN3CCc4[nH]c5nnc(-c6ccccc6O)cc5c4C3)no2)C(C)C)cc1 (single isomer, unassigned) [Compound 136] | C (“C” indicates maximum degradation < 50%)
20 | < 50% |  |  | Cc1ncsc1-c1ccc([C@H](C)NC(=O)[C@@H]2C[C@@H](O)CN2C(=O)[C@@H](c2cc(CN3CC(c4cc5cc(-c6ccccc6O)nnc5[nH]4)C3)no2)C(C)C)cc1 (single isomer, unassigned) [Compound 137] | A (“A” indicates maximum degradation ≥ 75%)
21 | < 50% | > 100 nM |  | Cc1ncsc1-c1ccc([C@H](C)NC(=O)[C@@H]2C[C@@H](O)CN2C(=O)[C@@H](c2cc(OCCCN[C@@H]3CCc4[nH]c5nnc(-c6ccccc6O)cc5c4C3)no2)C(C)C)cc1 (single isomer, unassigned) [Compound 145] | A (“A” indicates maximum degradation ≥ 75%)
22 | > 75% | > 10 nM | > 100 nM | Cc1ncsc1-c1ccc([C@H](C)NC(=O)[C@@H]2C[C@@H](O)CN2C(=O)[C@@H](c2cc(N3CCC(C(=O)N[C@@H]4CCc5[nH]c6nnc(-c7ccccc7O)cc6c5C4)CC3)no2)C(C)C)cc1 (single isomer, unassigned) [Compound 146] | A (“A” indicates maximum degradation ≥ 75%)
